Where a name gives a salt, the structure may show the parent alone.
Assays:
[1] = tested on: annual weeds: Common Crabgrass (Digitaria sanguinalis), Goosegrass (Eleusine indica), Bitter Fleabane (Erigeron acer); settings: CD Observation Method visual score (2.0-10.0); 60 g/mou glyphosate, field spray; observed 2.5, 5, 7 and 11 days after application
Text: (§1) A CD Observation Method was used to make records.
(§2) Assessment Criteria of the CD Observation Method
(§3) A visual method was used with the following criteria: • 2.0 mild poisoning symptom in a spot of leaves • 4.0 a few leaves lost green or turned yellow while the plant growth was substantially normal • 6.0 leaves lost green or turned yellow or some leaves withered, while the stalk was nearly normal, and was yet able to grow slowly • 8.0 caulicle or inflorescence and rachis of leaves withered; most of stalk turned yellow or lost green mildly and was unable to grow normally; the plant died locally • 10.0 the whole plant died

[2] = tested on: perennial weeds: Alligator Alternanthera Herb (Alternanthera philoxeroides); settings: CD Observation Method visual score (2.0-10.0); 60 g/mou glyphosate, field spray; observed 2.5, 5, 7 and 11 days after application
Text: as §1, §2, §3

[3] = tested on: weeds; settings: field plot 2 m×2.5 m, spray, effective ingredient 60 g/mou (based on glyphosate) diluted by water to 30 l/mou
Experimental: A sample was taken in an effective ingredient amount of 60 g/mou (based on glyphosate), and was diluted by water to 30 l/mou. The resulting diluted liquor was evenly sprayed into a test field plot with an area of 2 m×2.5 m, repeated twice. […] A CD Observation Method was used to make records.

O=C(O)CNCP(=O)(O)O [dimethylamine salt of N-phosphonomethyl glycine]
Control on annual weeds [1]: 9.6 | Control on perennial weeds [2]: 9.4 | Days for weeds to die [3]: 9~11 d

— patent publication US9221853B2, “Glyphosate dimethylamine salt crystal, preparation method and use thereof” (ZHEJIANG WYNCA CHEMICAL INDUSTRY GROUP CO., LTD., priority 2009, dated 2015)
